What all share (format): biochemical
The subject of experiment [1] is cellulase. Briefly: Viscosity of guar fluid with cellulase and deactivator at 22° C. (Examples 3-7). Particulars: 200 ppm cellulase; for degradation of the guar: 22° C. (FIG. 4). How it is done:
(§1) The following example formulations were prepared by adding a desired amount of cellulase and then a deactivator to water. The polymer was hydrated in the mixed water with a Waring blender mixing at 1000-3000 rpm for 15 mins.
The viscosities of Formulations 1-6 were measured immediately after mixing. To measure the viscosity of the solutions, 12 mL samples were loaded into a rheometer cup in a Bohlin rheometer with a C25 configuration.
The viscosities of Formulations 1-4 were measured immediately after mixing. To measure the viscosity of the solutions, 12 mL samples were loaded into a rheometer cup in a Bohlin rheometer with a C25 configuration.
The viscosities of Formulations 1-5 were measured immediately after mixing. To measure the viscosity of the solutions, 12 mL samples were loaded into a rheometer cup in a Bohlin rheometer with a C25 configuration.

Experiment [2] has as its system cellulase. Briefly: Viscosity of guar solution with cellulase and deactivator over time at 50° C. and 80° C. (Example 1). Particulars: 200 ppm cellulase, 3.6 g/L guar. Here is the method: as §1
Formulation 3 was prepared by adding 200 ppm cellulase and 0.6 g/L of 1,5-dihydroxynaphthalene from Sigma Aldrich to tap water. Then 3.6 g/L guar was added to the fluid.
Formulation 4 was prepared by adding 200 ppm cellulase and 0.24 g/L of 1,5-dihydroxynaphthalene from Sigma Aldrich to tap water. Then 3.6 g/L guar was added to the fluid.
To measure the viscosity of the solutions, 12 mL samples were loaded into a rheometer cup in a Bohlin rheometer with a C25 configuration. The rheology tests were performed at a shear rate of 10 s^−1 and temperatures of 50° C. and 80° C., the results of which are shown in FIG. 1 and FIG. 2, respectively.

For experiment [3], the system named is cellulase. Nature of the experiment: Viscosity of carboxymethyl cellulose fluid with cellulase and deactivator at 22° C. (Example 9). Particulars: 0.6 g/L deactivator, 200 ppm cellulase, 3.6 g/L carboxymethyl cellulose. How it is done: as §1
Formulation 3 was prepared by adding 200 ppm cellulase, 0.6 g/L of 1,5-dihydroxynaphthalene, and 3.6 g/L carboxymethyl cellulose to tap water.
(§2) The viscosities of Formulations 1-3 were measured immediately after mixing. To measure the viscosity of the solutions, 12 mL samples were loaded into a rheometer cup in a Bohlin rheometer with a C25 configuration.

The test system of experiment [4] is cellulase. Nature of the experiment: Viscosity of xanthan fluid with cellulase and deactivator at 22° C. (Example 8). The note with it: 0.6 g/L deactivator, 200 ppm cellulase, 3.6 g/L xanthan. Here is the method: as §1
Formulation 3 was prepared by adding 200 ppm cellulase, 0.6 g/L of 1,5-dihydroxynaphthalene, and 3.6 g/L xanthan to tap water.
as §2

For experiment [5], the system named is bacterial and/or fungal cells. Nature of the experiment: Viscosity of guar in water containing 11,000,000 CFU bacterial and/or fungal cells (Example 2). The note with it: 0.4 g/L deactivator, 3.6 g/L guar. How it is done:
Formulation 2 was prepared by adding 3.6 g/L guar to water containing 11,000,000 CFU bacterial and/or fungal cells.
Formulation 3 was prepared by adding 0.4 g/L of tannic acid to Formulation 2.
as §2

The structures appear in SMILES notation.

With `COc1cc(OC)cc(OC)c1` [1,3,5-trimethoxybenzene], in the experiment with cellulase [1] (0.6 g/L 1,3,5-trimethoxybenzene, 3.6 g/L guar, 22° C. (FIG. 8)), the “degradation of the biomaterial” value is given as “impeded”. Moreover, in the experiment on cellulase [1] (0.6 g/L 1,3,5-trimethoxybenzene, 3.6 g/L guar, shear rate 1, 10, 100 s^-1, 22° C. (FIG. 8)), the “viscosity compared with Formulation 1 (no cellulase)” value is “similar”.

Consider `Oc1cccc2cccc(O)c12` [1,8-dihydroxynaphthalene], for which the “degradation of the biomaterial” value in the experiment on cellulase [1] (0.12 g/L deactivator, 3.6 g/L guar, 22° C. (FIG. 6)) was “impeded”. In the experiment with cellulase [1] (0.12 g/L deactivator, 3.6 g/L guar, shear rate 1, 10, 100 s^-1, 22° C. (FIG. 6)), the “viscosity compared with Formulation 1 (no cellulase)” value is on record as “similar”.

Consider `COc1cccc(OC)c1OC` [1,2,3-trimethoxybenzene], for which the “degradation of the biomaterial” value in the experiment with cellulase [1] (0.6 g/L 1,2,3-trimethoxybenzene, 3.6 g/L guar, 22° C. (FIG. 8)) is on record as “impeded”. Besides, in the experiment on cellulase [1] (0.6 g/L 1,2,3-trimethoxybenzene, 3.6 g/L guar, shear rate 1, 10, 100 s^-1, 22° C. (FIG. 8)), the “viscosity compared with Formulation 1 (no cellulase)” value is recorded as “similar”.

As for `COc1ccccc1O` [guaiacol], the “degradation of the guar” value with cellulase [1] (8 mL/L deactivator, 6 g/L guar) is “impeded”. Further, in the experiment with cellulase [1] (8 mL/L deactivator, 6 g/L guar, shear rate 1, 10, 100 s^-1, 22° C. (FIG. 4)), the “viscosity compared with Formulation 1 (no cellulase)” value is recorded as “similar”.

Take `Nc1cccc2c(O)cccc12` [5-amino-1-naphthol]: the “degradation of the biomaterial” value in the experiment on cellulase [1] (0.96 g/L deactivator, 3.6 g/L guar, 22° C. (FIG. 7)) is on record as “impeded”. The “viscosity compared with Formulation 1 (no cellulase)” value with cellulase [1] (0.96 g/L deactivator, 3.6 g/L guar, shear rate 1, 10, 100 s^-1, 22° C. (FIG. 7)) is “similar”.

Turning to `Oc1cccc2c(O)cccc12` [1,5-dihydroxynaphthalene], the “degradation rate of the cellulase enzymes” value in the experiment with cellulase [2] (0.6 g/L deactivator, tap water, shear rate 10 s^-1, 50° C. and 80° C. (FIG. 1, 2)) is on record as “reduced”. Further, the “dependence of viscosity reduction on deactivator concentration” value with cellulase [2] (0.6 g/L vs 0.24 g/L deactivator, 50° C. (FIG. 1)) was “the slower the viscosity was reduced”. Also, the “viscosity compared with the formulation without deactivator” value is reported as “higher” in the experiment with cellulase [2] (50° C., shear rate 10 s^-1 (FIG. 1)) and “higher” in the experiment with cellulase [2] (80° C., shear rate 10 s^-1 (FIG. 2)). Moreover, the “degradation of the biomaterial” value in the experiment with cellulase [3] (22° C. (FIG. 10)) was “impeded”; in the experiment on cellulase [1] (0.6 g/L deactivator, 3.6 g/L guar, 22° C. (FIG. 6)), “impeded”; in the experiment on cellulase [4] (22° C. (FIG. 9)), “impeded”. Also, the “viscosity compared with Formulation 1 (no cellulase)” value with cellulase [3] (shear rate 1, 10, 100 s^-1, 22° C. (FIG. 10)) is “similar”; with cellulase [1] (0.6 g/L deactivator, 3.6 g/L guar, shear rate 1, 10, 100 s^-1, 22° C. (FIG. 6)) it was “similar”; in the experiment with cellulase [4] (shear rate 1, 10, 100 s^-1, 22° C. (FIG. 9)) it was “similar”.

Take `Oc1ccc2c(c1)OCO2` [sesamol]: the “degradation of the biomaterial” value in the experiment with cellulase [1] (0.36 g/L deactivator, 3.6 g/L guar, 22° C. (FIG. 7)) is recorded as “impeded”. For the same compound, in the experiment with cellulase [1] (0.36 g/L deactivator, 3.6 g/L guar, shear rate 1, 10, 100 s^-1, 22° C. (FIG. 7)), the “viscosity compared with Formulation 1 (no cellulase)” value is given as “similar”.

`COc1cc(C(=O)O)ccc1O` [vanillic acid]: the “degradation of the guar” value in the experiment on cellulase [1] (0.96 g/L deactivator, 3.6 g/L guar) is “impeded”. For the same compound, the “viscosity compared with Formulation 1 (no cellulase)” value with cellulase [1] (0.96 g/L deactivator, 3.6 g/L guar, shear rate 1, 10, 100 s^-1, 22° C. (FIG. 4)) is “similar”.

For the compound `O=C(O)c1cc(O)c(O)c(O)c1` [gallic acid], the “degradation of the guar” value in the experiment on cellulase [1] (8 mL/L gallic acid, 3.6 g/L guar) was “impeded”. The “viscosity compared with Formulation 1 (no cellulase)” value with cellulase [1] (8 mL/L gallic acid, 3.6 g/L guar, shear rate 1, 10, 100 s^-1, 22° C. (FIG. 4)) is recorded as “similar”.

With `O=C(OC[C@H]1O[C@@H](OC(=O)c2cc(O)c(O)c(OC(=O)c3cc(O)c(O)c(O)c3)c2)[C@H](OC(=O)c2cc(O)c(O)c(OC(=O)c3cc(O)c(O)c(O)c3)c2)[C@@H](OC(=O)c2cc(O)c(O)c(OC(=O)c3cc(O)c(O)c(O)c3)c2)[C@@H]1OC(=O)c1cc(O)c(O)c(OC(=O)c2cc(O)c(O)c(O)c2)c1)c1cc(O)c(O)c(OC(=O)c2cc(O)c(O)c(O)c2)c1` [tannic acid], the “degradation of the biomaterial by the cellulase enzymes” value with cellulase [1] (0.4 g/L deactivator, 3.6 g/L guar, 22° C. (FIG. 5)) was “impeded”. The “viscosity compared with Formulation 1 (no cellulase)” value in the experiment on cellulase [1] (0.4 g/L deactivator, 3.6 g/L guar, shear rate 1, 10, 100 s^-1, 22° C. (FIG. 5)) is “similar”. Besides, the “degradation of the guar biomaterial by the enzyme” value in experiment [5] (water with 11,000,000 CFU bacterial and/or fungal cells, 22° C. (FIG. 3)) is listed as “inhibited”. Moreover, the “viscosity compared with Formulation 1 (guar in tap water)” value in experiment [5] (water with 11,000,000 CFU cells, shear rate 1, 10, 100 s^-1, 22° C. (FIG. 3)) is reported as “similar”.

With `O=C(O)c1ccccc1O` [salicylic acid], in the experiment with cellulase [1] (8 mL/L salicylic acid, 3.6 g/L guar), the “degradation of the guar” value is “impeded”. In addition, the “viscosity compared with Formulation 1 (no cellulase)” value with cellulase [1] (8 mL/L salicylic acid, 3.6 g/L guar, shear rate 1, 10, 100 s^-1, 22° C. (FIG. 4)) is recorded as “similar”.

Turning to `Oc1cc2ccccc2cc1O` [2,3-dihydroxynaphthalene], the “degradation of the biomaterial” value with cellulase [1] (0.36 g/L deactivator, 3.6 g/L guar, 22° C. (FIG. 6)) was “impeded”. Moreover, the “viscosity compared with Formulation 1 (no cellulase)” value with cellulase [1] (0.36 g/L deactivator, 3.6 g/L guar, shear rate 1, 10, 100 s^-1, 22° C. (FIG. 6)) is given as “similar”.

(Values after patent US10214681B2, “Method for treating a subterranean formation” (Schlumberger Technology Corporation, priority 2015, dated 2019).)
